Experimental data published in paper PMC7997032, “Organic synthesis and anti-influenza A virus activity of cyclobakuchiols A, B, C, and D” (PLoS ONE, 2021).
Values joined by “and” are separate entries in the source; they are usually repeats but may differ in a detail not shown here. Identical values can stand only once.

System: MDCK cells
Assay: MTT assay (cytotoxicity against MDCK cells)
Type: cell-based, canine
Conditions: MDCK cells; for MTT, DMSO as 100 (DMSOを 100として), ave / MTT 72h AVE (DMSO = 100): 72h; for MTT, DMSO as 100 (DMSOを 100として), ave: mean of 5 wells (200409 #1 and #3); for MTT 72h AVE (DMSO = 100): summary AVE; for MTT 24h, AVE (DMSO as 100) / MTT 24h, 570-650nm, DMSO as 100, ave: mean of 5 wells from 3 experiments; for MTT 24h, AVE (DMSO as 100): relative to DMSO = 100; for MTT 24h, 570-650nm, DMSO as 100, single replicate: individual wells (200331; 200403 #2 1,2; 200403 #3 1,2); for 570-650nm (MTT absorbance, single wells) / 570-650nm ave (mean MTT absorbance of 5 wells) / MTT absorbance with DMSO as 100 (DMSOを 100として), single wells: MTT 72h; for 570-650nm (MTT absorbance, single wells): experiments #1-#3, duplicate wells; for MTT absorbance with DMSO as 100 (DMSOを 100として), single wells: relative to mean of DMSO
Description: 1–5 (0.8–100 μM) were prepared in DMSO (100 μM, 1%; 50 μM, 0.5%; 25 μM, 0.25%; 12.5 μM, 0.125%; 6.3 μM, 0.063%; 3.1 μM, 0.031%; 1.6 μM, 0.016%; 0.8 μM, 0.008%) and mixed with infection medium (DMEM supplemented with 1% bovine serum albumin (BSA; Wako), P/S and 4 mM L-glutamine). The resulting mixture was added to the cells and incubated for 24 or 72 h at 37°C in the presence of 5% CO2. After incubation, cell viability was determined using an MTT cell count kit (Nacalai Tesque) according to the manufacturer’s instructions, as previously described.

[1] = 3.13uM (3.125uM in summary block)

Q: Which results are given for C=C[C@]1(C)CC[C@@H](C(=C)C)[C@H](c2ccc(O)cc2)C1 [Cyclo. B]?
A: MTT, DMSO as 100 (DMSOを 100として), ave (0.78uM): 97.4368; MTT, DMSO as 100 (DMSOを 100として), ave (1.56uM): 107.487; MTT, DMSO as 100 (DMSOを 100として), ave (3.125uM): 135.205; MTT 72h AVE (DMSO = 100) (6.25 (uM)): 152.012; MTT 72h AVE (DMSO = 100) (12.5 (uM)): 128.856; MTT 72h AVE (DMSO = 100) (25 (uM)): 133.275; MTT 72h AVE (DMSO = 100) (50 (uM)): 92.332; MTT 72h AVE (DMSO = 100) (100 (uM)): 27.1545; MTT 24h, AVE (DMSO as 100) (0.78 uM): 105.371; MTT 24h, AVE (DMSO as 100) (1.56 uM): 93.7053; MTT 24h, 570-650nm, DMSO as 100, single replicate (3.125uM): 97.7259 and 87.8578 and 108.85 and 106.215 and 84.4914; MTT 24h, 570-650nm, DMSO as 100, ave (3.125uM): 97.028; MTT 24h, 570-650nm, DMSO as 100, single replicate (6.25uM): 100.056 and 92.1514 and 106.191 and 111.594 and 90.247; MTT 24h, 570-650nm, DMSO as 100, ave (6.25uM): 100.048; MTT 24h, 570-650nm, DMSO as 100, single replicate (12.5uM): 100.027 and 92.2079 and 111.97 and 107.481 and 100.019; MTT 24h, 570-650nm, DMSO as 100, ave (12.5uM): 102.341; MTT 24h, 570-650nm, DMSO as 100, single replicate (25uM): 93.3176 and 99.811 and 119.964 and 115.104 and 108.65; MTT 24h, 570-650nm, DMSO as 100, ave (25uM): 107.369; MTT 24h, 570-650nm, DMSO as 100, single replicate (50uM): 101.366 and 118.852 and 85.3652 and 130.523 and 116.385; MTT 24h, 570-650nm, DMSO as 100, ave (50uM): 110.498; MTT 24h, 570-650nm, DMSO as 100, single replicate (100uM): 120.469 and 116.882 and 135.616 and 105.182 and 78.3439; MTT 24h, 570-650nm, DMSO as 100, ave (100uM): 111.299; 570-650nm (MTT absorbance, single wells) (0.78uM): 1.0803 and 0.7822 and 0.6986 and 0.7618 and 0.6844 and 0.8059; 570-650nm (MTT absorbance, single wells) (1.56uM): 0.9938 and 0.9382 and 0.7725 and 0.5035 and 0.9217 and 0.7676; 570-650nm (MTT absorbance, single wells) [1]: 0.8489 and 0.8759 and 0.9309 and 0.9208 and 0.9982 and 0.8279; 570-650nm ave (mean MTT absorbance of 5 wells) (6.25uM): 1.04; 570-650nm (MTT absorbance, single wells) (6.25uM): 0.8643 and 1.0571 and 1.004 and 1.1478 and 1.1256 and 0.8768; MTT absorbance with DMSO as 100 (DMSOを 100として), single wells (6.25uM): 154.547 and 146.784 and 167.807 and 164.561 and 126.36; 570-650nm ave (mean MTT absorbance of 5 wells) (12.5uM): 1.026; 570-650nm (MTT absorbance, single wells) (12.5uM): 1.0196 and 0.9592 and 1.0242 and 0.9589 and 1.0117 and 1.1742; MTT absorbance with DMSO as 100 (DMSOを 100として), single wells (12.5uM): 120.471 and 128.675 and 147.52 and 127.104 and 120.509; 570-650nm ave (mean MTT absorbance of 5 wells) (25uM): 1.002; 570-650nm ave (mean MTT absorbance of 5 wells) (50uM): 0.8426; 570-650nm ave (mean MTT absorbance of 5 wells) (100uM): 0.2557; 570-650nm (MTT absorbance, single wells) (100uM): 0.2419 and 0.2859 and 0.234 and 0.2603 and 0.2251 and 0.273; MTT absorbance with DMSO as 100 (DMSOを 100として), single wells (100uM): 27.6474 and 24.854 and 28.9963 and 23.9087 and 30.3664

Q: With C=C[C@]1(C)CC[C@H](C(=C)C)[C@@H](c2ccc(O)cc2)C1 [Cyclo. A] as the compound, how does the “MTT, DMSO as 100 (DMSOを 100として), ave” value (0.78uM) read?
A: The value was 105.716.

Q: What about the “MTT, DMSO as 100 (DMSOを 100として), ave” value (1.56uM) of the same compound?
A: Its value is 110.791.

Q: What about the “MTT, DMSO as 100 (DMSOを 100として), ave” value (3.125uM) of the same compound?
A: The value was 135.974.

Q: And the “MTT 72h AVE (DMSO = 100)” value (6.25 (uM))?
A: Its value is 127.594.

Q: What about the “MTT 72h AVE (DMSO = 100)” value (12.5 (uM)) of the same compound?
A: The value was 109.498.

Q: And the “MTT 72h AVE (DMSO = 100)” value (25 (uM))?
A: Its value is 139.303.

Q: What about the “MTT 72h AVE (DMSO = 100)” value (50 (uM)) of the same compound?
A: The value was 115.79.

Q: What about the “MTT 72h AVE (DMSO = 100)” value (100 (uM)) of the same compound?
A: Its value is 76.9772.

Q: And the “MTT 24h, AVE (DMSO as 100)” value (0.78 uM)?
A: Its value is 98.7342.

Q: What about the “MTT 24h, 570-650nm, DMSO as 100, single replicate” value (from here on “MTT 24h … single replicate”) (1.56uM) of the same compound?
A: The value was 96.4276 and 83.3373 and 92.051 and 113.855 and 70.8632.

Q: And the “MTT 24h, 570-650nm, DMSO as 100, ave” value (1.56uM)?
A: The value was 91.3068.

Q: And the “MTT 24h … single replicate” value (3.125uM)?
A: The value was 90.7466 and 86.7485 and 103.011 and 110.013 and 65.2713.

Q: What about the “MTT 24h, 570-650nm, DMSO as 100, ave” value (3.125uM) of the same compound?
A: The value was 91.158.

Q: And the “MTT 24h … single replicate” value (6.25uM)?
A: Its value is 105.57 and 88.5259 and 94.0239 and 117.378 and 78.8606.

Q: What about the “MTT 24h, 570-650nm, DMSO as 100, ave” value (6.25uM) of the same compound?
A: Its value is 96.8717.

Q: What about the “MTT 24h … single replicate” value (12.5uM) of the same compound?
A: Its value is 102.53 and 101.147 and 92.3748 and 125.129 and 78.3815.

Q: What about the “MTT 24h, 570-650nm, DMSO as 100, ave” value (12.5uM) of the same compound?
A: The value was 99.9126.

Q: What about the “MTT 24h … single replicate” value (25uM) of the same compound?
A: Its value is 98.9543 and 93.1175 and 86.0556 and 130.26 and 81.3877.

Q: And the “MTT 24h, 570-650nm, DMSO as 100, ave” value (25uM)?
A: Its value is 97.9551.

Q: And the “MTT 24h … single replicate” value (50uM)?
A: The value was 112.693 and 118.709 and 75.6574 and 146.7 and 98.6391.

Q: What about the “MTT 24h, 570-650nm, DMSO as 100, ave” value (50uM) of the same compound?
A: The value was 110.48.

Q: And the “MTT 24h … single replicate” value (100uM)?
A: Its value is 18.7526 and 22.4148 and 109.83 and 20.6307 and 19.4099.

Q: What about the “MTT 24h, 570-650nm, DMSO as 100, ave” value (100uM) of the same compound?
A: The value was 38.2076.

Q: And the “570-650nm (MTT absorbance, single wells)” value (0.78uM)?
A: Its value is 0.7522 and 1.0518 and 0.8482 and 0.7789 and 0.8023 and 0.8685.

Q: And the “570-650nm (MTT absorbance, single wells)” value [1]?
A: Its value is 0.6647 and 0.8265 and 0.8832 and 1.0096 and 1.017 and 1.0051.

Q: And the “570-650nm ave (mean MTT absorbance of 5 wells)” value (“570-650nm ave” for short) (6.25uM)?
A: Its value is 0.8727.

Q: What about the “570-650nm (MTT absorbance, single wells)” value (6.25uM) of the same compound?
A: Its value is 0.8664 and 0.8077 and 0.726 and 1.0037 and 0.9599 and 0.9185.

Q: What about the “MTT absorbance with DMSO as 100 (DMSOを 100として), single wells” value (“MTT absorbance with DMSO” below) (6.25uM) of the same compound?
A: Its value is 118.085 and 106.14 and 146.74 and 140.336 and 126.667.

Q: What about the “570-650nm ave” value (12.5uM) of the same compound?
A: Its value is 0.8716.

Q: What about the “570-650nm (MTT absorbance, single wells)” value (12.5uM) of the same compound?
A: Its value is 0.7966 and 0.8514 and 0.5539 and 1.0521 and 0.9774 and 0.9778.

Q: And the “MTT absorbance with DMSO” value (12.5uM)?
A: The value was 69.5889 and 132.18 and 122.795 and 122.845 and 100.08.

Q: What about the “570-650nm ave” value (25uM) of the same compound?
A: The value was 1.0477.

Q: And the “570-650nm (MTT absorbance, single wells)” value (25uM)?
A: The value was 0.9324 and 1.0073 and 0.9924 and 1.0024 and 1.1748 and 1.1365.

Q: What about the “MTT absorbance with DMSO” value (25uM) of the same compound?
A: The value was 131.951 and 133.28 and 156.203 and 151.11 and 123.973.

Q: And the “570-650nm ave” value (50uM)?
A: The value was 1.057.

Q: What about the “570-650nm (MTT absorbance, single wells)” value (50uM) of the same compound?
A: The value was 1.0423 and 1.105 and 0.762 and 0.9117 and 1.3276 and 1.24.

Q: What about the “MTT absorbance with DMSO” value (50uM) of the same compound?
A: Its value is 83.4959 and 99.8992 and 145.471 and 135.873 and 114.21.

Q: What about the “570-650nm ave” value (100uM) of the same compound?
A: Its value is 0.7247.
